Test results taken from patent publication US20190054054A1, “Methods reducing or preventing oxidation of high density lipoprotein (HDL)” (Amarin Pharmaceuticals Ireland Limited, priority 2017, published 2019).
Where “and” joins values, the source holds several entries; their conditions need not be identical. Equal values may be shown once.

Experiments:
[1] = Membrane cholesterol domain peak intensity, x-ray diffraction of POPC/cholesterol membranes (Example 9); settings: 1.5:1 C/P mole ratio; for % change Vs control / Relative Cholesterol Domain Preak Intensity: drug-to-phospholipid mole ratio 1:30; for Relative Cholesterol Domain Preak Intensity: POPC and cholesterol
Description: The fatty acid stock solutions were stored at −20° C. until use. […] Samples were shell-dried under nitrogen gas and placed under vacuum for 3 hours to remove residual solvent at room temperature. After desiccation, each sample was resuspended in saline buffer (0.5 mM HEPES, 154 mM NaCl, pH 7.3) to yield a final phospholipid concentration of 2.5 mg/mL. Lipid suspensions were then vortexed for 3 minutes at ambient temperature to form MLVs. Membrane lipid vesicles were oriented for x-ray diffraction analysis as described by others (e.g., Herbette et al., Biophys. […] Briefly, a 100 μL aliquot of each MLV preparation (containing 250 μg MLV) was transferred to a Lucite® sedimentation cell fitted with an aluminum foil substrate designed to collect MLVs into a single membrane pellet upon centrifugation. […] After centrifugal orientation, sample supernatants were aspirated and aluminum foil substrates, each supporting a single membrane pellet, were removed from the sedimentation cells. Sample pellets were dried for 5-10 minutes at ambient conditions, mounted onto curved glass supports, and placed in hermetically-sealed, brass or glass containers (for immediate analysis or temporary storage, respectively). All x-ray diffraction experiments were conducted at 20° C., 74% relative humidity. The latter was established by exposing membrane samples to saturated solutions of L-(+)-tartaric acid (K2C4H4O6.½H2O) for at least 1 hour prior to experimental analysis. Oriented membrane samples were aligned at grazing incidence with respect to a collimated, mono-chromatic CuKα x-ray beam (Kα1 and Kα2 unresolved; λ=1.54 Å) produced by a Rigaku Rotaflex RU-200, high-brilliance microfocus generator (Rigaku-MSC, The Woodlands, Tex.) as previously described (Mason et al., Biophys. J., vol. 55(4), pages 769-778 (1989)). The samples were initially subjected to x-ray diffraction analysis at least 12 hours after formation of the membrane pellets and retested for up to several days. Analytical x-rays were generated by electron bombardment of a rotating copper anode and are filtered through a thin nickel foil to provide monochromatic radiation (λ=1.54 Å). Collimation of the x-ray beam was achieved using a single Franks mirror. Diffraction data were collected on a one-dimensional, position-sensitive electron detector (Hecus X-ray Systems, Graz, Austria) at a sample-to-detector distance of 150 mm from the sample site. The d-space for any given membrane multi bilayer is a measurement of the unit cell periodicity of the membrane lipid bilayer (e.g., the distance from the center of one lipid bilayer to the next including surface hydration), and is calculated from Bragg's Law, h λ=2 d sin θ, where h is the diffraction order, λ is the wavelength of the x-ray radiation (1.54 Å), d is the membrane lipid bilayer unit cell periodicity, and θ is the Bragg angle equal to one-half the angle between the incident beam and scattered beam. […] Routines written in Origin 8.6 (OriginLab Corporation, Northampton, Mass.) were used to determine total peak area (associated with all diffraction peaks in a given pattern) against which the second-order cholesterol domain peak was normalized. The raw data collected in this study was normalized using internal. Data were presented as mean+S.E.M. for (N) separate samples or treatment groups. Differences between groups were analyzed using the two-tailed, Student's t-test (for comparisons between only two groups) or ANOVA followed by Dunnett or Student-Newman-Keuls multiple comparisons post-hoc analysis (for comparisons between three or more groups). Alpha error was set to 0.05 in this study.

HUVECs exposed to oxLDL = assay: NO and ONOO^− release from HUVECs exposed to oxLDL, nanosensors (Example 8); type: cell-based, human; settings: oxLDL 20 min, then treatment for 1 hour; EPA 10 μM, ATM 1.0 μM
Description: Human umbilical vein endothelial cells (HUVECs) were isolated into primary cultures from female donors by Clonetics (San Diego, Calif.) and purchased as proliferating cells. All cell culture donors were healthy, with no pregnancy or prenatal complications. […] The confluent cells (4 to 5×10^5 cells/35 mm dish) were placed with minimum essential medium containing 3 mM L-arginine and 0.1 mM BH4 [(6R)-5,6,7,8-tetrahydrobiopterin]. Before experimental use, the cells (from second or third passage) were rinsed twice with Tyrode-HEPES buffer with 1.8 mM CaCl2).
The omega-3 fatty acids (O3FAs) cis-5,8,11,14,17-eicosapentaenoic acid (EPA) and docosahexaenoic acid (DHA) were purchased from Sigma-Aldrich (St. Louis, Mo.) and prepared initially at 11 mM in redistilled ethanol. Primary and secondary O3FA stock solutions were prepared and stored under argon at −20° C.
The oxLDL causes eNOS uncoupling and endothelial dysfunction to reproduce disease-like conditions. 25 Venous blood from healthy normolipidemic volunteers was collected into Na-EDTA (1 mg/mL blood) vacuum tubes after a 12-hour fast. Plasma was immediately separated by centrifugation at 3,000 g for 10 minutes at 4° C.
Tris-NaCl buffer was added to the dialyzed LDL to adjust the protein concentration to 30 mg/mL. A 1-mL aliquot of 20 μM CuSO4 was added to 1 mL of dialyzed normal LDL.
Oxidation was monitored by the use of measurements of TBARS. Briefly, LDL was incubated with thiobarbituric acid (0.5 wt/vol, in H2SO4, 50 mM) for 30 minutes at 100° C. […] TBARS concentration was determined as malondialdehyde (MDA) equivalents with the use of an MDA standard curve.
Concurrent measurements of NO and ONOO^− were performed with tandem electrochemical nanosensors combined into one working unit with a total diameter of 200-400 nm. Their design was based on previously developed and chemically modified carbon-fiber technology. Each of the nanosensors was made by depositing a sensing material on the tip of a carbon fiber (length 4 to 5 μm, diameter 100-200 nm). The fibers were sealed with nonconductive epoxy and electrically connected to copper wires with conductive silver epoxy. Conductive films of polymeric Ni(II) tetrakis (3-methoxy-4-hydroxyphenyl) porphyrin and Mn(III) [2.2] paracyclophanylporphyrin were used for the NO and ONOO^− sensors, respectively.
The amperometric method (with a response time of 0.1 ms) provides a quantitative signal (current) that is directly proportional to changes (from basal levels) in NO or ONOO^− concentration. Amperometric measurements were performed with a Gamry III double-channel potentiostat. Basal NO or ONOO^− levels were measured by differential pulse voltammetry in separate experiments.
All measurements of NO and ONOO^− were performed on intact endothelial cells. The NO/ONOO^− nanosensor module was positioned 5±2 μm from the surface of each individual endothelial cell using a computer-controlled M3301 micromanipulator (x-y-z resolution of 0.2 μm) and microscope (both from World Precision Instruments, Berlin, Germany) fitted with a CD camera.
Endothelial basal media was used for all the treatments. Controls were supplied with an equivalent volume of endothelial basal media.
Data are presented as mean±S.D. for (N) separate samples or experiments. Differences between groups were analyzed using the two-tailed, Student t-test (for comparisons between only two groups) or ANOVA followed by Student-Newman-Keuls multiple comparisons post-hoc analysis (for comparisons between three or more groups). Only differences with probability values less than 0.05 were considered significant.

HUVECs = assay: NO release from HUVECs incubated with agent-treated oxidized sdLDL (Example 12); type: cell-based, human; settings: oxidized sdLDL pretreated with agent at 10.0 μM
Description: All samples, with the exception of non-oxidized sdLDL controls, were subjected to copper-induced oxidation for 1 hour. Human umbilical vein endothelial cells (HUVECs) were incubated with the various sdLDL samples, stimulated with calcium, and monitored for nitric oxide (NO) and peroxynitrite (ONOO^−) release using nanosensor technology.

Row | Compound | % change Vs control [1] | Relative Cholesterol Domain Preak Intensity [1] | reduction in cholesterol domain peaks as compared to vehicle treatment ([1]; 1:30) [%] | Relative Cholesterol Domain Preak Intensity ([1]; listed as glycyrrhizin) | ONOO^− (HUVECs exposed to oxLDL) | reduction of NO release as compared to vehicle-treated, oxidized sdLDL (HUVECs) [%]
1 | CCCCC/C=C\C/C=C\C/C=C\C/C=C\CCCC(=O)O [AA, arachidonic acid] | −45.2% and −46.8 ± 15.2% | 22.5 ± 4.3 |  |  |  | 
2 | CC/C=C\C/C=C\C/C=C\CCCCCCCC(=O)O [ALA, α-linolenic acid] | −46.8% and −45.2 ± 11.3% | 23.2 ± 0.6 |  |  |  | 
3 | CC1(C)[C@@H](O[C@H]2O[C@H](C(=O)O)[C@@H](O)[C@H](O)[C@H]2O[C@@H]2O[C@H](C(=O)O)[C@@H](O)[C@H](O)[C@H]2O)CC[C@]2(C)[C@H]3C(=O)C=C4[C@@H]5C[C@@](C)(C(=O)O)CC[C@]5(C)CC[C@@]4(C)[C@]3(C)CC[C@@H]12 [Glyc, glycyrrhizin] | −54.9 ± 12.3% | 19.1 ± 1.2 | 54.9 | 19.1±1.2 |  | 
4 | CC(C)OC(=O)C(C)(C)Oc1ccc(C(=O)c2ccc(Cl)cc2)cc1 [fenofibrate] |  |  |  |  | 299 ± 24 | 21
